Assay results as given in US9241991B2, “Agents, compositions, and methods for treating pruritus and related skin conditions” (The Brigham and Women's Hospital, Inc., priority 2010, dated 2016).
One block for each molecule: values may come before it.

Legend:
TRPV1 = TRPV1 (Mus musculus, UniProt Q704Y3); assay: Resiniferatoxin pretreatment: heat sensitivity, imiquimod-induced scratches, TLR7+ skin fibers; assay type: in vivo, mice; parameters: central terminals of TRPV1-expressing nociceptors; from tissue; host or cells: mouse lumbar spinal cord slices (L4-L5); live mice (intrathecal capsaicin, resiniferatoxin pretreatment)
Text: C-fibers, express transient receptor potential subtype V1 (TRPV1) and are indispensable for itch sensation by various pruritogens (Imamachi, N. et al. Proc. Natl. Acad. Sci. U.S. A 106, 11330-11335 (2009)). […] Thus, TRPV1-expressing C-fibers but not TRPV1 per se are required for imiquimod-elicited itch. We also tested itch responses in mast cell-deficient SASH mice (Liu, Q. et al. Cell 139, 1353-1365 (2009)) and only found a moderate reduction (28%) in imiquimod-induced scratching (FIG. 12c).

TLR7 [1] = assay: Scratches after intradermal injection in the nape of the neck, WT and Tlr7-/- mice; assay type: in vivo; details: for dose response curve of scratching: intradermal injection, nape
Text: We next evaluated whether TLR7 plays a role in itch sensation. We counted the number of scratches (bouts) by a hindpaw of mouse following intradermal injection of pruritogenic agents in the nape of the neck.

DRG neurons = assay: Calcium imaging from cultured DRG neurons; assay type: cell-based; details: wild-type mice DRG neurons
Method: DRGs from all spinal levels of 4-week old mice were collected in cold DH10 (90% DMEM/F-12, 10% FBS, 100 U/ml penicillin, and 100 μg/ml Streptomycin, Gibco) and treated with enzyme solution (5 mg/ml Dispase, 1 mg/ml Collagenase Type I in HPBS without Ca^++ and Mg^++, Gibco) at 37° C. Following trituration and centrifugation, cells were resuspended in DH10, plated on glass cover slips coated with poly-D-lysine (0.5 mg/ml, Stoughton, Mass.) and laminin (10 μg/ml, Invitrogen), cultured in an incubator ([…] and 5% CO2) at 37° C. and used within 24 hours. Neurons were loaded with Fura 2-acetomethoxy ester (Molecular Probes) for 30 min in the dark at room temperature. After washing, cells were imaged at 340 and 380 nm excitation to detect intracellular free calcium. To compare the response to histamine, chloroquine, and capsaicin between WT and Tlr3-deficient DRG neurons, calcium imaging assays were performed with an experimenter blind to genotype (n=3 per genotype), and the percentages of DRG neurons showing calcium responses were determined as we previously described (23).

TLR7 [2] = molecular target: T1, TLR7 (Mus musculus, UniProt P58681); assay: Cheek model of itch versus pain, TLR7 ligands; assay type: in vivo, mice; details: 20 μg intradermal into the cheek
T1 construct: We found functional TLR7 receptors in small-size DRG neurons; from tissue; host or cells: small DRG neurons of mice; nape and cheek skin of live mice (C57BL/6J background, CD1)
T1 sequence (P58681 27-1050): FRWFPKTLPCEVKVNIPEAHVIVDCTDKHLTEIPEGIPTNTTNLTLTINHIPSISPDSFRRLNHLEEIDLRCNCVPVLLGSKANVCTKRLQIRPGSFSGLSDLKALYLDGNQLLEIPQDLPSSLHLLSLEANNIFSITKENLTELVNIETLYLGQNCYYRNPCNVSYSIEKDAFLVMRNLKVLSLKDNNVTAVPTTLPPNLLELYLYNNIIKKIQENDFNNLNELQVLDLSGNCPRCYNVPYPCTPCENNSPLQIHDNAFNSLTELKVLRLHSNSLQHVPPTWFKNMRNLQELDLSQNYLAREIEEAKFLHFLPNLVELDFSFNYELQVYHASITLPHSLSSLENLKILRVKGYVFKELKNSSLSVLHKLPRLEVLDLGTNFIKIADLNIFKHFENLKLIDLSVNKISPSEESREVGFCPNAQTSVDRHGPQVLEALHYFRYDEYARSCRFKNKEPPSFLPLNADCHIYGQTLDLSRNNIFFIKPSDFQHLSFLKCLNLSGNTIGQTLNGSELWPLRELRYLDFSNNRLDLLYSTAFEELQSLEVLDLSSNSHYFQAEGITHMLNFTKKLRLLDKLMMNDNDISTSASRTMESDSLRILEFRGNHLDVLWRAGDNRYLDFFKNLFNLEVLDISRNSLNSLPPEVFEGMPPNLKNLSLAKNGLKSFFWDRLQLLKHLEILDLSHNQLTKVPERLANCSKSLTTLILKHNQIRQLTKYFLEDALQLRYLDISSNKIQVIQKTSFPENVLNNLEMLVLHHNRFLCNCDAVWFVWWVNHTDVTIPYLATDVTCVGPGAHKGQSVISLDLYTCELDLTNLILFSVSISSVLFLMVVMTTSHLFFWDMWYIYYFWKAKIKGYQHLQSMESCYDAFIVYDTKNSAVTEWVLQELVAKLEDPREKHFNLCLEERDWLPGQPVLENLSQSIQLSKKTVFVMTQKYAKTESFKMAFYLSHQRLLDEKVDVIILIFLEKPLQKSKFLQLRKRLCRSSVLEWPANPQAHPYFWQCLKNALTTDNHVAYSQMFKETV
Method: To distinguish itch and pain responses simultaneously, we used the cheek model by injection of chemical into cheek of mice (8). After brief anesthesia with isoflurane, we shaved mice on cheeks (approx. 5×8 mm area) two days before experiments. On the day of experiment, we injected 10 μl of reagent (50 μg compound 48/80 or 100 μg chloroquine) into the cheek and counted the number of wipes and the number of scratches for 30 min. We only counted those unilateral wipes with the forelimb that were not part of grooming behavior. One scratch was defined as a lifting of the hind paw toward the injection site on the cheek and then returning the paw to the floor or to the mouth.
To further investigate a unique role of TLR7 in itch versus pain, we used a recently developed “cheek model” of itch (Shimada, S. G. & LaMotte, R. H. Pain 139, 681-687 (2008)).

TRPV1, sequence (Q704Y3 whole entry): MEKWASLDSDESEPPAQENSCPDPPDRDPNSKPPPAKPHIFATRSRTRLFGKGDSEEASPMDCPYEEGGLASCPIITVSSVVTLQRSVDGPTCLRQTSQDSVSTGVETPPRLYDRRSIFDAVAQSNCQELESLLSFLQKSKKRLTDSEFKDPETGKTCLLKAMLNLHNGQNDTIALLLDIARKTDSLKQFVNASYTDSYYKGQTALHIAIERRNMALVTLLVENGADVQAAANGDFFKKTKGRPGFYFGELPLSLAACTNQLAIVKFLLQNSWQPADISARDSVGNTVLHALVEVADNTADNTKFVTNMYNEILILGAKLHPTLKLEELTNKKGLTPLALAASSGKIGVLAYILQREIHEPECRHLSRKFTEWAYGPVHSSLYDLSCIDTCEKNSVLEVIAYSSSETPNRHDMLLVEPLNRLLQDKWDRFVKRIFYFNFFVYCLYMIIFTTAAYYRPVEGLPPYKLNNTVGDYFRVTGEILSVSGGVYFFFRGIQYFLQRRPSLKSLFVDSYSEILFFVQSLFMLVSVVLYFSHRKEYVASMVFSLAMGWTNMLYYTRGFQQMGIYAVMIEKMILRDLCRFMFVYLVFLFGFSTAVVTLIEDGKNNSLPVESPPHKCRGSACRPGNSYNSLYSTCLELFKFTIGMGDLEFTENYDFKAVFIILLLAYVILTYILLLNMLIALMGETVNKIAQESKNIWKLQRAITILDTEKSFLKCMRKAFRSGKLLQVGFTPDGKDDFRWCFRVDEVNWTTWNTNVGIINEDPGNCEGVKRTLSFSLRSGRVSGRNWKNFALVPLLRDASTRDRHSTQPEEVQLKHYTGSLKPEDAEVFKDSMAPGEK

SMILES: C=C(C)[C@]12C[C@@H](C)[C@@]34O[C@](Cc5ccccc5)(O[C@@H]1[C@@H]3C=C(COC(=O)Cc1ccc(O)c(OC)c1)C[C@]1(O)C(=O)C(C)=C[C@@H]41)O2 [RTX, resiniferatoxin]
heat sensitivity after pretreatment (TRPV1; RTX pretreatment): loss of heat sensitivity | imiquimod-induced scratches after pretreatment (TRPV1; RTX pretreatment): almost abolished | TLR7+ fibers in the skin (TRPV1; RTX treatment): ablated

SMILES: CCN(CC)CCCC(C)Nc1ccnc2cc(Cl)ccc12 (centres unmarked) [chloroquine]
TLR7 dependence of scratching at the highest dose (TLR7 [1]; 600 μg): TLR7-independent | dose response curve of scratching (TLR7 [1]): bell-shaped dose response curve | neurons with intracellular Ca2+ increases (DRG neurons): 5%

SMILES: NCCc1c[nH]cn1 [histamine]
neurons with intracellular Ca2+ increases (DRG neurons): 10%

itch-like scratching in cheek model (TLR7 [2]): elicited itch-like scratching | pain-indicative wiping in cheek model (TLR7 [2]): not pain-indicative wiping behavior
SMILES: C=CCn1c(=O)n([C@@H]2O[C@H](CO)[C@@H](O)[C@H]2O)c2nc(N)[nH]c(=O)c21 [loxoribine]
dose response curve of scratching (TLR7 [1]): inverted-U-shaped dose response curve | scratches in Tlr7-/- mice versus WT (TLR7 [1]; intradermal, 100 μg): reduced
